Test results taken from article PMC10974533, “Cationicity Enhancement on the Hydrophilic Face of Ctriporin Significantly Reduces Its Hemolytic Activity and Improves the Antimicrobial Activity against Antibiotic-Resistant ESKAPE Pathogens” (Toxins, 2024).
Where a SMILES comes first, the peptide text is derived from it.

Assays:
Format in all cases: cell-based
[1] = test system: A. baumannii ATCC19606; test: MIC, broth dilution, standard strain; conditions: broth dilution (CLSI), MHB, 5 × 10^5 CFU/mL, 37 °C, 16–20 h, OD630, repeated at least three times
Description: (§1) The standard strains, including S. aureus ATCC29213 and ATCC25923, E. faecalis ATCC29212, E. coli ATCC25922 and ATCC35218, A. baumannii ATCC19606, K. pneumoniae ATCC700603, and P. aeruginosa ATCC27853, were purchased from the China Center of Type Culture Collection (CCTCC). The clinical strains of the ESKAPE pathogens were isolated from the affiliated hospitals of Hubei University of Medicine. All of them were stored at −80 °C before use. The drug sensitivities of the clinical strains were determined by the Kirby–Bauer test.
(§2) The MICs were determined using the broth dilution method according to the guidelines of the Clinical and Laboratory Standards Institute (CLSI), as described in the previous studies. Briefly, the bacterial cells were incubated in Mueller–Hinton broth (MHB, Oxoid, Basingstoke, UK) at 37 °C and 150 rpm to the mid-growth phase and diluted to achieve a final concentration of 5 × 10^5 colony-forming units per milliliter (CFU/mL). Then, the cells were mixed with each peptide in different concentrations (1, 2, 4, 8, 16, 32, and 64 μg/mL). […] All experiments were repeated at least three times.

[2] = test system: E. coli ATCC25922; test: MIC, broth dilution, standard strain; conditions: broth dilution (CLSI), MHB, 5 × 10^5 CFU/mL, 37 °C, 16–20 h, OD630, repeated at least three times
Description: as §1, §2

[3] = test system: E. coli ATCC35218; test: MIC, broth dilution, standard strain; conditions: broth dilution (CLSI), MHB, 5 × 10^5 CFU/mL, 37 °C, 16–20 h, OD630, repeated at least three times
Description: as §1, §2

[4] = test system: E. faecium ATCC29212; test: MIC, broth dilution, standard strain; conditions: broth dilution (CLSI), MHB, 5 × 10^5 CFU/mL, 37 °C, 16–20 h, OD630, repeated at least three times
Description: as §1, §2

[5] = test system: K. pneumoniae ATCC700603; test: MIC, broth dilution, standard strain; conditions: broth dilution (CLSI), MHB, 5 × 10^5 CFU/mL, 37 °C, 16–20 h, OD630, repeated at least three times
Description: as §1, §2

[6] = test system: P. aeruginosa ATCC27853; test: MIC, broth dilution, standard strain; conditions: broth dilution (CLSI), MHB, 5 × 10^5 CFU/mL, 37 °C, 16–20 h, OD630, repeated at least three times
Description: as §1, §2

[7] = test system: S. aureus ATCC25923; test: MIC, broth dilution, standard strain; conditions: broth dilution (CLSI), MHB, 5 × 10^5 CFU/mL, 37 °C, 16–20 h, OD630, repeated at least three times
Description: as §1, §2

[8] = test system: S. aureus ATCC29213; test: MIC, broth dilution, standard strain; conditions: broth dilution (CLSI), MHB, 5 × 10^5 CFU/mL, 37 °C, 16–20 h, OD630, repeated at least three times
Description: as §1, §2

[9] = test system: human red blood cells (hRBC); test: Hemolytic activity determination; conditions: 2% (v/v) hRBC, 37 °C, 1 h; for curve of hemolysis% vs. peptide concentration (Figure 2): 0–512 μg/mL peptide, compared in words; for Hemolysis% at 256 μg/mL: 256 μg/mL peptide, OD540, 1% Triton X-100 = 100%, average ± standard error of three independent experiments
Description: Figure 2 Hemolytic activities of Ctriporin and its analogs against human red blood cells (hRBC). Hemolytic activities of Ctriporin (solid circle), CM1 (open circle), CM2 (open square), CM3 (upward triangle), CM4 (downward triangle), CM5 (half solid circle), CM6 (half solid square), and CM7 (half solid triangle), were measured against 2% (v/v) human red blood cells. The peptide concentrations are 0, 2, 4, 8, 16, 32, 64, 128, 256, and 512 μg/mL. The cells treated with 1% Triton X-100 were treated as 100% hemolysis. All experiments were repeated three times, and the data shown are the average ± standard error.
The hemolytic activities of the peptides were determined against human red blood cells (hRBCs). As described, sodium citrate-anticoagulated hRBCs were washed three times with 0.9% sodium chloride and diluted to a final concentration of 4% (v/v). Then, an equal volume of hRBC solutions was mixed with an equal volume of each peptide in a series of concentrations (0, 2, 4, 8, 16, 32, 64, 128, 256, and 512 μg/mL). After co-incubation at 37 °C for 1 h, the degree of hemolysis of the peptides was determined by detecting the release of hemoglobin from the damaged hRBCs by measuring the optical density at 540 nm (OD540). hRBCs in 0.9% sodium chloride and 1% Triton X-100 were considered 0% and 100% hemolysis, respectively. The results shown are the average ± standard error of data derived from three independent experiments. The percent hemolysis was calculated according to the following equation [53, 54]:Hemolysis (%) = 100 × (Asample − Ablank)/(Apositive − Ablank)

[10] = test system: A. baumannii 19295; test: MIC, broth dilution, clinical isolate; conditions: CRE/MDR clinical isolate; broth dilution (CLSI), MHB, 5 × 10^5 CFU/mL, 37 °C, 16–20 h, OD630
Description: as §1, §2

[11] = test system: A. baumannii 19462; test: MIC, broth dilution, clinical isolate; conditions: CRE/MDR clinical isolate; broth dilution (CLSI), MHB, 5 × 10^5 CFU/mL, 37 °C, 16–20 h, OD630
Description: as §1, §2

[12] = test system: A. baumannii 19618; test: MIC, broth dilution, clinical isolate; conditions: CRE/MDR clinical isolate; broth dilution (CLSI), MHB, 5 × 10^5 CFU/mL, 37 °C, 16–20 h, OD630
Description: as §1, §2

[13] = test system: E. coli 2678; test: MIC, broth dilution, clinical isolate; conditions: ESBL clinical isolate; broth dilution (CLSI), MHB, 5 × 10^5 CFU/mL, 37 °C, 16–20 h, OD630
Description: as §1, §2

[14] = test system: E. coli 2687; test: MIC, broth dilution, clinical isolate; conditions: ESBL clinical isolate; broth dilution (CLSI), MHB, 5 × 10^5 CFU/mL, 37 °C, 16–20 h, OD630
Description: as §1, §2

[15] = test system: E. faecium 898; test: MIC, broth dilution, clinical isolate; conditions: MDR clinical isolate; broth dilution (CLSI), MHB, 5 × 10^5 CFU/mL, 37 °C, 16–20 h, OD630
Description: as §1, §2

[16] = test system: K. pneumoniae 9126; test: MIC, broth dilution, clinical isolate; conditions: CRE clinical isolate; broth dilution (CLSI), MHB, 5 × 10^5 CFU/mL, 37 °C, 16–20 h, OD630
Description: as §1, §2

[17] = test system: P. aeruginosa 9014; test: MIC, broth dilution, clinical isolate; conditions: CRE/MDR clinical isolate; broth dilution (CLSI), MHB, 5 × 10^5 CFU/mL, 37 °C, 16–20 h, OD630
Description: as §1, §2

[18] = test system: S. aureus 891; test: MIC, broth dilution, clinical isolate; conditions: MRSA clinical isolate; broth dilution (CLSI), MHB, 5 × 10^5 CFU/mL, 37 °C, 16–20 h, OD630
Description: as §1, §2

[19] = test system: S. aureus 9124; test: MIC, broth dilution, clinical isolate; conditions: MRSA clinical isolate; broth dilution (CLSI), MHB, 5 × 10^5 CFU/mL, 37 °C, 16–20 h, OD630
Description: as §1, §2

[20] = test system: S. capitis 3255; test: MIC, broth dilution, clinical isolate; conditions: MRSC clinical isolate; broth dilution (CLSI), MHB, 5 × 10^5 CFU/mL, 37 °C, 16–20 h, OD630
Description: as §1, §2

[21] = test system: S. epidermidis 6943; test: MIC, broth dilution, clinical isolate; conditions: MRSE clinical isolate; broth dilution (CLSI), MHB, 5 × 10^5 CFU/mL, 37 °C, 16–20 h, OD630
Description: as §1, §2

[22] = test system: S. epidermidis 9092; test: MIC, broth dilution, clinical isolate; conditions: MRSE clinical isolate; broth dilution (CLSI), MHB, 5 × 10^5 CFU/mL, 37 °C, 16–20 h, OD630
Description: as §1, §2

[23] = test system: standard ESKAPE strains; conditions: broth dilution (CLSI), MHB, 37 °C, 16–20 h; range over all standard strains
Description: The ESKAPE pathogens represent the main threat to public health concerning antimicrobial resistance. Therefore, we first evaluated the antimicrobial activities of Ctriporin and its analogs against the standard ESKAPE strains. The minimum inhibitory concentration (MIC) was chosen as the index for the evaluation of each peptide’s activity. […] Note that the MICs of CM4 and CM7 are 4–32 and 8–32 μg/mL, respectively, indicating the existence of significant bacterial species deviations for the antimicrobial activity of these peptides. In addition, the replacement of specific residues, especially Pro^7, may harm the antimicrobial activities of the peptide.
as §1, §2

[24] = test system: clinical isolates of CRE and multidrug-resistant (MDR) A. baumannii; conditions: broth dilution (CLSI), MHB
Description: To further evaluate the antimicrobial potential of CM5 and CM6, the MICs of these two peptides, as well as the parent peptide Ctriporin, were determined against clinical antibiotic-resistant isolates of ESKAPE strains. […] Note that CRE and MDR A. baumannii are listed at the top of the pathogens threatening public health. Compared with the parent peptide Ctriporin, eight to sixteen times improvement in terms of antimicrobial activity was obtained through our peptide design strategy.
as §2

Work on `CC[C@H](C)[C@H](NC(=O)[C@H](C)NC(=O)[C@H](CCCCN)NC(=O)[C@@H]1CCCN1C(=O)[C@@H](NC(=O)[C@H](CC(C)C)NC(=O)[C@H](CCCCN)NC(=O)[C@H](Cc1c[nH]c2ccccc12)NC(=O)[C@H](CC(C)C)NC(=O)[C@@H](N)Cc1ccccc1)[C@@H](C)CC)C(=O)N[C@@H](CCCCN)C(=O)N[C@@H](CCCCN)C(=O)N[C@H](C(=O)N[C@@H](CCCCN)C(=O)N[C@@H](CO)C(=O)N[C@@H](CC(C)C)C(=O)N[C@H](C(=O)N[C@@H](CCCCN)C(=O)N[C@@H](CCCCN)C(N)=O)[C@@H](C)CC)C(C)C` [CM5] (H-FLWKLIPKAIKKVKSLIKK-NH2) yielded an MICs [1] of 2 µg/mL, an MICs [2] of 8 µg/mL and an MICs [3] of 4 µg/mL. The MICs [4] was 8 µg/mL, the MICs [5] was 8 µg/mL and the MICs [6] was 4 µg/mL. For the same molecule, the MICs [7] was 4 µg/mL, the MICs [8] was 4 µg/mL and the “curve of hemolysis% vs. peptide concentration (Figure 2)” value [9] was “decreased dramatically compared with Ctriporin”. For the same molecule, the “Hemolysis% at 256 μg/mL” value [9] was 9.8 ± 0.6%, the MICs [10] was 2 µg/mL and the MICs [11] was 2 µg/mL. The MICs [12] was 2 µg/mL, the MICs [13] was 8 µg/mL and the MICs [14] was 8 µg/mL. The MICs [15] was 4 µg/mL, the MICs [16] was 16 µg/mL and the MICs [17] was 8 µg/mL. It also gave an MICs [18] of 4 µg/mL, an MICs [19] of 8 µg/mL and an MICs [20] of 2 µg/mL. For the same molecule, the MICs [21] was 4 µg/mL, the MICs [22] was 4 µg/mL and the “MICs against the ESKAPE pathogens (range over the standard strains of Table 2)” value [23] was 2 to 8 µg/mL. The “MIC values against clinical isolates of CRE and MDR A. baumannii” value [24] was 2 µg/mL.
`CC[C@H](C)[C@H](NC(=O)[C@H](C)NC(=O)[C@H](CCCCN)NC(=O)[C@@H]1CCCN1C(=O)[C@@H](NC(=O)[C@H](CC(C)C)NC(=O)[C@H](CCCCN)NC(=O)[C@H](Cc1c[nH]c2ccccc12)NC(=O)[C@H](CC(C)C)NC(=O)[C@@H](N)Cc1ccccc1)[C@@H](C)CC)C(=O)N[C@@H](CCCCN)C(=O)N[C@@H](CCCCN)C(=O)N[C@H](C(=O)N[C@@H](CCCCN)C(=O)N[C@@H](CCCCN)C(=O)N[C@@H](CC(C)C)C(=O)N[C@H](C(=O)N[C@@H](CCCCN)C(=O)N[C@@H](CCCCN)C(N)=O)[C@@H](C)CC)C(C)C` [CM6] (H-FLWKLIPKAIKKVKKLIKK-NH2) gave an MICs [1] of 4 µg/mL, an MICs [2] of 8 µg/mL and an MICs [3] of 8 µg/mL. It also gave an MICs [4] of 8 µg/mL, an MICs [5] of 8 µg/mL and an MICs [6] of 4 µg/mL. For the same molecule, the MICs [7] was 8 µg/mL, the MICs [8] was 8 µg/mL and the “curve of hemolysis% vs. peptide concentration (Figure 2)” value [9] was “decreased dramatically compared with Ctriporin”. For the same molecule, the “Hemolysis% at 256 μg/mL” value [9] was 8.1 ± 1.9%, the MICs [10] was 2 µg/mL and the MICs [11] was 2 µg/mL. The MICs [12] was 2 µg/mL, the MICs [13] was 8 µg/mL and the MICs [14] was 8 µg/mL. The MICs [15] was 4 µg/mL, the MICs [16] was 16 µg/mL and the MICs [17] was 8 µg/mL. For the same molecule, the MICs [18] was 8 µg/mL, the MICs [19] was 8 µg/mL and the MICs [20] was 2 µg/mL. The MICs [21] was 4 µg/mL, the MICs [22] was 4 µg/mL and the “MICs against the ESKAPE pathogens (range over the standard strains of Table 2)” value [23] was 4 to 8 µg/mL. For the same molecule, the “MIC values against clinical isolates of CRE and MDR A. baumannii” value [24] was 2 µg/mL.
